Experimental findings from patent US10385050B2, “Indolin-2-one and 1,3-dihydro-pyrrolo[3,2-c]pyridin-2-one derivatives” (Hoffmann-La Roche Inc., priority 2014, dated 2019) are described below.

Molecules are shown by their SMILES. Structures can show the parent of a compound that is named as a salt.

Experiment [1] relates to behaviors of compound-treated mice. The experiment in a line: SmartCube behavioral signature and similarity analysis to atypical antipsychotics. The experiment is classed as in vivo, mouse. Particulars: 25 mg/kg i.p.; for SmartCube signature (class similarity): FIG. 1; for Similarity analysis: discrimination rate vs Clozapine / Similarity analysis: discrimination rate vs Olanzapine / Similarity analysis: discrimination rate vs Risperidone: rate of 0.70 or lower = similar, 0.5 = zero distinguishability. The text has this:
In addition to the reversal of L-687,414 induced hyperlocomotion experiment as described above, some compounds of the present invention have been tested in SmartCube®, an automated system in which the behaviors of compound-treated mice in response to multiple challenges are captured by digital video and analyzed with computer algorithms (Roberds et al., Frontiers in Neuroscience, 2011, Vol. 5, Art. 103, 1-4). In this way, the neuro-pharmacological effects of a test compound can be predicted by similarity to major classes of compounds, such as antipsychotics, anxiolytics and antidepressants.
As mentioned above, some compounds have been tested in SmartCube®, an analytical system developed by PsychoGenics Inc.
SmartCube® was used to compare the behavioral signature of a test compound to a database of behavioral signatures obtained from a large set of clinically approved reference drugs, grouped per indications. In this way, the neuro-pharmacological effects of a test compound can be predicted by similarity to major classes of compounds, such as antipsychotics, anxiolytics and antidepressants. This approach is ideally suited to screen collections of existing drugs or drug candidates with previously unknown neuropharmacology, which could expedite the development of new and unexpected treatments for psychiatric disorders.
Some compounds of the present invention were injected i.p. at different doses 15 minutes before the test. At least 8 mice were used in each treatment group. Digital videos of the subjects were processed with computer vision algorithms to extract over 2000 dependent measures including frequency and duration of many different behavioral states. The results of the classifications are presented as bar charts for each compound and dose (mg/kg), the Y-axis indicates the relative probability that the test compound will show efficacy in the specific CNS indication.
Compounds of the present invention show similar signatures to those of atypical antipsychotics. An independent analysis was performed on the unclassified data to determine the similarity of the example compounds to active doses of known atypical antipsychotics. For this analysis, we use discrimination rate as the measure of separability between the two drugs, i.e. one drug's “distinguishability” from another. A rate equal to 50% (or 0.5) corresponds to zero distinguishability. […] In most cases, the example compounds show a similarity to risperidone, clozapine and olanzapine with a discrimination rate of ≤0.70.

The subject of experiment [2] is L-687,414-induced hyperlocomotion. The experiment in a line: Reversal of L-687,414-induced hyperlocomotion (Digiscan locomotor activity). It is filed as in vivo, mouse. The note with it: for ID50 po: dose producing 50% inhibition of L-687,414-induced hyperlocomotion, p.o. 15 min before s.c. 50 mg/kg L-687,414, doses 1-3-10 (Expl. 2: 3-10-30) mg/kg; for inhibition in vivo at 30 mg/kg: Mus musculus, 0.5 h, dose ip 30 mg/kg at the same time as s.c. 50 mg/kg L-687,414, horizontal activity over 30 min. From the text:
The authors described that hyperlocomotion induced by L-687,414 was inhibited by a series of known antipsychotic drugs. […] These findings predict antipsychotic activity for the present compounds, making them useful for the treatment of positive (psychosis) and negative symptoms of schizophrenia, substance abuse, alcohol and drug addiction, obsessive-compulsive disorders, cognitive impairment, bipolar disorders, mood disorders, major depression, resistant depression, anxiety disorders, Alzheimer's disease, autism, Parkinson's disease, chronic pain, borderline personality disorder, sleep disturbances, chronic fatigue syndrome, stiffness, antiinflammatory effects in arthritis and balance problems.
The described compounds of formula I reduce L-687,414-induced hyperlocomotion. This was assessed by using a computerized Digiscan 16 Animal Activity Monitoring System (Omnitech Electronics, Columbus, Ohio) to quantify locomotor activity. Animals were kept under a 12 h light/dark cycle and experiments were performed during the light period. Each activity monitoring chamber consisted of a Plexiglas box (41×41×28 cm; W×L×H) with sawdust bedding on the floor surrounded by invisible horizontal and vertical infrared sensor beams. The test boxes were divided by a Plexiglas cross providing each mouse with 20×20 cm of moving space. Cages were connected to a Digiscan Analyzer linked to a computer that constantly collected the beam status information. Records of photocell beam interruptions for individual animals were taken every 5 min over the duration of the experimental session and the sum of the first 6 periods was used as the final parameter. Compounds were administered either p.o. 15 min before a s.c. injection of 50 mg/kg of L-687,414, or i.p. at the same time as a s.c. injection of 50 mg/kg of L-687,414. Mice were then transferred from their home cage to the recording chambers for a 15-min habituation phase allowing free exploration of the new environment. Horizontal activity was then recorded for a 30-min time period. The % inhibition of L-687,414-induced hyperlocomotion was calculated according to the equation: ((Veh+L-687,414 horizontal activity−drug+L-687,414 horizontal activity)/Veh+L−687,414 horizontal activity)×100
ID50 values, defined as doses of each compound producing 50% inhibition of L-687,414-induced hyperlocomotion, were calculated by linear regression analysis of a dose-response data using an Excel-based computer-fitting program.
As data was not presupposed to be normally distributed, groups treated with test compounds were statistically compared with the control (vehicle-treated) group using one-tailed Mann Whitney U tests. In statistics, the Mann-Whitney U test (also called the Mann-Whitney-Wilcoxon (MWW) or Wilcoxon rank-sum test) is a non-parametric statistical hypothesis test for assessing whether one of two samples of independent observations tends to have larger values than the other. It is one of the most well-known non-parametric significance tests. […] P values given in table 1 are one-tailed since only decreases in locomotion were expected and tested for (Mann, H. B., Whitney, D. R. (1947), “On a Test of Whether one of Two Random Variables is Stochastically Larger than the Other”, Annals of Mathematical Statistics, 18 (1), 50-60).

Regarding `Cc1cc(-c2ncc(-c3ccc4c(c3)NC(=O)C4(C)C)o2)ccn1` [Example 35, 3,3-Dimethyl-6-(2-(2-methylpyridin-4-yl)oxazol-5-yl)indolin-2-one], in experiment [1], the “SmartCube signature (class similarity)” value is given as “similarity to atypical antipsychotics”, the “Similarity analysis: discrimination rate vs Clozapine” value (“Similarity analysis … vs Clozapine” for short) came out at 0.69, the “Similarity analysis: discrimination rate vs Olanzapine” value (“Similarity analysis … vs Olanzapine” for short) worked out at 0.75 and the “Similarity analysis: discrimination rate vs Risperidone” value (from here on “Similarity analysis … vs Risperidone”) is reported as 0.60. For the same molecule, the ID50 po in experiment [2] is listed as 5.82 mg/kg.
For the molecule `CC1(C)C(=O)Nc2cc(-n3cnc(-c4ccncc4)c3)ccc21` [Example 47, 3,3-Dimethyl-6-(4-(pyridin-4-yl)-1H-imidazol-1-yl)indolin-2-one], in experiment [1], the “SmartCube signature (class similarity)” value is given as “similarity to atypical antipsychotics”, the “Similarity analysis … vs Clozapine” value is given as 0.70, the “Similarity analysis … vs Olanzapine” value amounted to 0.68 and the “Similarity analysis … vs Risperidone” value came to 0.64.
With `Cc1cc(-n2cnc(-c3ccc4c(c3)N(C)C(=O)C4(C)C)c2)ccn1` [Example 62, 1,3,3-Trimethyl-6-(1-(2-methylpyridin-4-yl)-1H-imidazol-4-yl)indolin-2-one], in experiment [1], the “SmartCube signature (class similarity)” value is reported as “similarity to atypical antipsychotics”, the “Similarity analysis … vs Clozapine” value turned out to be 0.59, the “Similarity analysis … vs Olanzapine” value amounted to 0.62 and the “Similarity analysis … vs Risperidone” value is recorded as 0.58. In experiment [2], the ID50 po turned out to be 8.8 mg/kg.
One may read the inhibition in vivo as how much of the control response was suppressed. With `Cc1cnccc1-n1cnc(-c2ccc3c(c2)N(C2CC2)C(=O)C3(C)C)c1` [Example 89, 1-Cyclopropyl-3,3-dimethyl-6-(1-(3-methylpyridin-4-yl)-1H-imidazol-4-yl)indolin-2-one], in experiment [2], the inhibition in vivo at 30 mg/kg was found to be 58.5%.
On to `CC1(C)C(=O)Nc2cc(-c3cn(-c4cccnc4)cn3)ccc21` [Example 93, 3,3-Dimethyl-6-(1-(pyridin-3-yl)-1H-imidazol-4-yl)indolin-2-one], for which, in experiment [1], the “SmartCube signature (class similarity)” value is “similarity to atypical antipsychotics”, the “Similarity analysis … vs Clozapine” value came to 0.63, the “Similarity analysis … vs Olanzapine” value was determined as 0.68 and the “Similarity analysis … vs Risperidone” value was 0.60.
For `Cc1ccc(-c2ncc(-c3ccc4c(c3)N(C)C(=O)C4(C)C)cn2)cn1` [Example 101, 1,3,3-Trimethyl-6-(2-(6-methylpyridin-3-yl)pyrimidin-5-yl)indolin-2-one], the inhibition in vivo at 30 mg/kg in experiment [2] was found to be 78.4%.
`Cc1ccc(N2C(=O)C(C)(C)c3ccc(-c4cn(-c5ccncc5F)cn4)cc32)cn1` [Example 102, 6-[1-(3-Fluoro-4-pyridyl)imidazol-4-yl]-3,3-dimethyl-1-(6-methyl-3-pyridyl)indolin-2-one]: the inhibition in vivo at 30 mg/kg in experiment [2] was 65.6%.
For `Cc1ccc(N2C(=O)C(C)(C)c3ccc(-c4cn(-c5ccnc(C)c5)cn4)cc32)cn1` [Example 104, 3,3-Dimethyl-1-(6-methyl-3-pyridyl)-6-[1-(2-methyl-4-pyridyl)imidazol-4-yl]indolin-2-one], the inhibition in vivo at 30 mg/kg in experiment [2] was determined as 64.8%.
With `Cc1ccc(N2C(=O)C(C)(C)c3ccc(-c4cn(-c5ccncc5C)cn4)cc32)cn1` [Example 105, 3,3-Dimethyl-1-(6-methyl-3-pyridyl)-6-[1-(3-methyl-4-pyridyl)imidazol-4-yl]indolin-2-one], the inhibition in vivo at 30 mg/kg in experiment [2] was 40.6%.
With `Cc1cc(N2C(=O)C(C)(C)c3ccc(-c4cn(-c5ccncc5C)cn4)cc32)ccn1` [Example 106, 3,3-Dimethyl-1-(2-methyl-4-pyridyl)-6-[1-(3-methyl-4-pyridyl)imidazol-4-yl]indolin-2-one], the inhibition in vivo at 30 mg/kg in experiment [2] was determined as 68.4%.
The same measure, in the same setting: next, `Cc1cc(-n2cnc(-c3ccc4c(c3)N(c3cn(C)cn3)C(=O)C4(C)C)c2)ccn1` [Example 111, 3,3-Dimethyl-1-(1-methylimidazol-4-yl)-6-[1-(2-methyl-4-pyridyl)imidazol-4-yl]indolin-2-one]: 55.1%; `Cc1cc(-n2cnc(-c3ccc4c(c3)N(c3ccn(C)n3)C(=O)C4(C)C)c2)ccn1` [Example 112, 3,3-Dimethyl-1-(1-methylpyrazol-3-yl)-6-[1-(2-methyl-4-pyridyl)imidazol-4-yl]indolin-2-one]: 52.5%; `Cc1cnccc1-n1cnc(-c2ccc3c(c2)N(c2cn(C)cn2)C(=O)C3(C)C)c1` [Example 114, 3,3-Dimethyl-1-(1-methylimidazol-4-yl)-6-[1-(3-methyl-4-pyridyl)imidazol-4-yl]indolin-2-one]: 64.9%.
With `Cc1cnccc1-n1cnc(-c2ccc3c(c2)N(c2ccn(C)n2)C(=O)C3(C)C)c1` [Example 115, 3,3-Dimethyl-1-(1-methylpyrazol-3-yl)-6-[1-(3-methyl-4-pyridyl)imidazol-4-yl]indolin-2-one], the inhibition in vivo at 30 mg/kg in experiment [2] was 74.1%.
With `Cc1ncc(N2C(=O)C(C)(C)c3ccc(-c4cn(-c5ccncc5C)cn4)cc32)cn1` [Example 116, 3,3-Dimethyl-6-[1-(3-methyl-4-pyridyl)imidazol-4-yl]-1-(2-methylpyrimidin-5-yl)indolin-2-one], the inhibition in vivo at 30 mg/kg in experiment [2] came to 74.3%.
For `Cc1cnc(-n2cnc(-c3ccc4c(c3)N(C3CC3)C(=O)C4(C)C)c2)nc1` [Example 118, 1-Cyclopropyl-3,3-dimethyl-6-(1-(5-methylpyrimidin-2-yl)-1H-imidazol-4-yl)indolin-2-one], the inhibition in vivo at 30 mg/kg in experiment [2] amounted to 50.3%.
With `Cc1cnc(-n2cnc(-c3ccc4c(c3)N(C)C(=O)C4(C)C)c2)nc1` [Example 119, 1,3,3-Trimethyl-6-(1-(5-methylpyrimidin-2-yl)-1H-imidazol-4-yl)indolin-2-one], the inhibition in vivo at 30 mg/kg in experiment [2] amounted to 48.1%.
For `Cc1cccc(-n2cnc(-c3ccc4c(c3)NC(=O)C4(C)C)c2)n1` [Example 123, 3,3-Dimethyl-6-(1-(6-methylpyridin-2-yl)-1H-imidazol-4-yl)indolin-2-one], the inhibition in vivo at 30 mg/kg in experiment [2] was 30.6%.
As for `CC1(C)C(=O)N(CCO)c2cc(-c3cn(-c4ccncc4F)cn3)ccc21` [Example 130, 6-[1-(3-Fluoro-4-pyridyl)imidazol-4-yl]-1-(2-hydroxyethyl)-3,3-dimethyl-indolin-2-one], the inhibition in vivo at 30 mg/kg in experiment [2] amounted to 74.5%.
In the case of `Cc1cc(-n2cnc(-c3ccc4c(c3)NC(=O)C4(C)C)c2)c(F)cn1` [Example 132, 6-[1-(5-Fluoro-2-methyl-4-pyridyl)imidazol-4-yl]-3,3-dimethyl-indolin-2-one trifluoroacetate], the inhibition in vivo at 30 mg/kg in experiment [2] came out at 71.1%.
